Results: patent US5329002A, “Antibacterial cephalosporin compounds” (Hoffmann-La Roche Inc., priority 1990, dated 1994)
Structures can show the parent of a compound that is named as a salt. Where two headings read alike, the source gives them in different places.

Legend:
Format in all cases: cell-based
E. coli ATCC 25922 = assay: In vitro MIC, Broth Dilution Method, E. coli ATCC 25922; settings: Escherichia coli
Text: (§1) The in vitro activity of the compounds of the present invention as measured by the Minimum Inhibitory Concentration (MIC) in micrograms/ml utilizing the Broth Dilution Method against a variety of Gram-positive and Gram-negative organisms, is as follows:
(§2) Concentration (MIC) in micrograms/ml utilizing the Broth Dilution Method against a variety of Gram-positive and Gram-negative organisms, is as follows:
(§3) In Vitro MIC (μg/ml), Broth Dilution Method

E. faecalis ATCC 29212 = assay: In vitro MIC, Broth Dilution Method, E. faecalis ATCC 29212; settings: Enterococcus faecalis, ATCC29212
Text: as §1, §2, §3

E. cloacae 5699 = assay: In vitro MIC, Broth Dilution Method, E. cloacae 5699
Text: as §1, §2, §3

S. aureus 95 = assay: In vitro MIC, Broth Dilution Method, S. aureus 95
Text: as §1, §2, §3

E. coli TEM 1 = assay: microbe, parasite or virus in culture; settings: Escherichia coli, TEM1, read-out: In Vitro MIC
Text: as §1, §2, §3

P. aeruginosa 18 S/H = assay: In vitro MIC, Broth Dilution Method, P. aeruginosa 18 S/H; settings: Pseudomonas aeruginosa
Text: as §1, §2, §3

S. pneumoniae 6301 = assay: In vitro MIC, Broth Dilution Method, S. pneumoniae 6301
Text: as §1, §2, §3

E. cloacae P99 = assay: In vitro MIC, Broth Dilution Method, E. cloacae P99; settings: Enterobacter cloacae, P99, read-out: In Vitro MIC
Text: as §1, §2, §3

P. aeruginosa 8710 = assay: In vitro MIC, Broth Dilution Method, P. aeruginosa 8710; settings: Pseudomonas aeruginosa
Text: as §1, §2, §3

S. aureus 1059B = assay: In vitro MIC, Broth Dilution Method, S. aureus 1059B; settings: Staphylococcus aureus
S. marcescens 1071 = assay: In vitro MIC, Broth Dilution Method, S. marcescens 1071
S. aureus ATCC 29213 = assay: In vitro MIC, Broth Dilution Method, S. aureus ATCC 29213; settings: Staphylococcus aureus
[1] = ATCC25922, read-out: In Vitro MIC
[2] = Enterobacter cloacae, 5699, read-out: In Vitro MIC
[3] = Staphylococcus aureus, 95, read-out: In Vitro MIC
[4] = Streptococcus pneumoniae, Broth Dilution Method, S. pneumoniae 6301, read-out: In Vitro MIC
[5] = Staphylococcus aureus, Broth Dilution Method, S. aureus 95, read-out: In Vitro MIC
[6] = Serratia marcescens, Broth Dilution Method, S. marcescens 1071, read-out: In Vitro MIC
[7] = ATCC29213, Broth Dilution Method, S. aureus ATCC 29213, read-out: In Vitro MIC
[8] = Enterobacter cloacae, Broth Dilution Method, E. cloacae 5699, read-out: In Vitro MIC
[9] = Streptococcus pneumoniae, 6301, read-out: In Vitro MIC

Row | Structure (SMILES) | MIC (E. coli ATCC 25922; [1]) [µg/mL] | MIC (E. faecalis ATCC 29212) [µg/mL] | MIC (E. cloacae 5699; [2]) [µg/mL] | MIC (S. aureus 95; [3]) [µg/mL] | MIC (E. coli TEM 1) [µg/mL] | MIC (P. aeruginosa 18 S/H) [µg/mL] | MIC (S. pneumoniae 6301; [4]) [µg/mL] | MIC (E. cloacae P99) [µg/mL] | MIC (P. aeruginosa 8710) [µg/mL] | MIC (S. aureus 1059B) [µg/mL] | MIC (S. aureus 95; [5]) [µg/mL] | MIC (S. marcescens 1071; [6]) [µg/mL] | MIC (S. aureus ATCC 29213; [7]) [µg/mL] | MIC (E. cloacae 5699; [8]) [µg/mL] | MIC (S. pneumoniae 6301; [9]) [µg/mL] | MIC (E. coli ATCC 25922; ATCC25922, Broth Dilution Method, E. coli ATCC 25922, read-out: In Vitro MIC) [µg/mL] | MIC (S. marcescens 1071; Serratia marcescens, 1071, read-out: In Vitro MIC) [µg/mL] | MIC (S. aureus ATCC 29213; ATCC29213, read-out: In Vitro MIC) [µg/mL]
1 | C[N+]1(CC2=C(C(=O)O)N3C(=O)[C@@H](NC(=O)COc4ccccc4)[C@H]3SC2)CCN(c2c(F)cc3c(=O)c(C(=O)O)cn(CCF)c3c2F)CC1.[I-] [Compound B, (6R-trans)-4-[3-carboxy-1-(2-fluoroethyl)-6,8-difluoro-1,4-dihydro-4-oxoquinolin-7-yl]-1-[[2-carboxy-8-oxo-7-[(phenoxyacetyl)amino]-5-thia-1-azabicyclo-[4.2.0]oct-2-en-3-yl]methyl]-1-methyl-piperazinium iodide] | 0.5 | 32 | 0.5 | 1 | 0.5 | 4 | 0.25 | 0.5 | 8 | – | – | – | – | – | – | – | – | –
2 | C[N+]1(CC2=C(C(=O)O)N3C(=O)[C@@H](NC=O)[C@H]3SC2)CCN(c2c(F)cc3c(=O)c(C(=O)O)cn(CCF)c3c2F)CC1 [Compound E, trifluoroacetate salt] | 0.5 | 32 | 0.5 | – | 0.5 | 8 | 1 | 0.5 | 8 | 0.5 | 1 | 1 | 0.5 | – | – | – | – | –
3 | CCn1cc(C(=O)O)c(=O)c2cc(F)c(N3CC[N+](C)(CC4=C(C(=O)O)N5C(=O)[C@@H](NC(=O)/C(=N\OC)c6csc(N)n6)[C@H]5SC4)CC3)cc21 [Compound D, [6R-[6α,7β(Z)]]-1-[[7-[[(2-amino-4-thiazolyl)(methoxyimino)acetyl]amino]-2-carboxy-8-oxo-5-thia-1-azabicyclo[4.2.0]-oct-2-en-3-yl]methyl]-4-(3-carboxy-1-ethyl-6-fluoro-1,4-dihydro-4-oxo-7-quinolinyl)-1-methylpiperazinium iodide] | 0.5 | 32 | – | – | 0.5 | 32 | – | 1 | 8 | 2 | 4 | 0.5 | 4 | 1 | 0.063 | – | – | –
4 | CO/N=C(\C(=O)N[C@@H]1C(=O)N2C(C(=O)O)=C(C[N+]3(C)CCN(c4c(F)cc5c(=O)c(C(=O)O)cn(CCF)c5c4F)CC3)CS[C@H]12)c1csc(N)n1 [Compound A, [6R-[6α,7β(Z)]]-1-[7-[[[(2-amino-4-thiazolyl)(methoxyimino)acetyl]amino]-2-carboxy-8-oxo-5-thia-1-azabicyclo[4.2.0]oct-2-en-3-yl]methyl]-4-[3-carboxy-6,8-difluoro-1-(2-fluoroethyl)-1,4-dihydro-4-oxo-7-quinolinyl]-1-methylpiperazinium iodide] | 0.25 | 64 | – | – | 0.25 | 8 | – | 0.5 | 8 | 2 | 4 | 0.5 | 4 | 0.5 | 0.063 | – | – | –
5 | CC(C)(O/N=C(\C(=O)N[C@@H]1C(=O)N2C(C(=O)[O-])=C(C[N+]3(C)CCN(c4c(F)cc5c(=O)c(C(=O)O)cn(CCF)c5c4F)CC3)CS[C@H]12)c1csc(N)n1)C(=O)O [Compound C, [6R-[6α,7β(Z)]]-1-[[7-[[[(2-amino-4-thiazolyl)[1-(1-carboxy-1-methyl)ethoxy]imino]acetyl]amino]-8-oxo-5-thia-1-azabicyclo-[4.2.0]oct-2-en-3-yl]methyl]-4-[3-carboxy-1-(2-fluoroethyl)-6,8-difluoro-1,4-dihydro-4-oxoquinolin-7-yl]-1-methylpiperazinium hydroxide inner salt monosodium salt] | – | 32 | 0.5 | 4 | 0.5 | 8 | 1 | 2 | 8 | 8 | – | – | – | – | – | 0.25 | 0.5 | 4
